Reference: US9763445B2, “Safened herbicidal compositions comprising a pyridine carboxylic acid herbicide” (Dow AgroSciences, LLC, priority 2014, dated 2017)

Key:
prickly lettuce (LACSE) = test: Postemergence greenhouse trial, % visual injury on prickly lettuce; type: in vivo, Lactuca serriola; details: LACSE
Procedure: (§1) Seeds of the desired test plant species were planted in Sun Gro MetroMix® 306 planting mixture, which typically has a pH of 6.0 to 6.8 and an organic matter content of about 30 percent, in plastic pots with a surface area of 103.2 square centimeters (cm^2). When required to ensure good germination and healthy plants, a fungicide treatment and/or other chemical or physical treatment was applied. The plants were grown for 7-36 days (d) in a greenhouse with an approximate 14-hour (h) photoperiod which was maintained at about 23° C. during the day and 22° C. during the night. Nutrients and water were added on a regular basis and supplemental lighting was provided with overhead metal halide 1000-Watt lamps as necessary. The plants were employed for testing when they reached the second or third true leaf stage.
(§2) Weighed amounts of technical material were dissolved in a volume of 97:3 volume per volume (v/v) acetone/dimethyl sulfoxide (DMSO) to stock solutions. […] The concentrated stock solutions were diluted with an aqueous mixture of 1.5% v/v of Agri-dex crop oil concentrate to provide the appropriate application rates. Compound requirements are based upon a 12 milliliter (mL) application volume at a rate of 187 liters per hectare (L/ha). Stocks solutions of the safeners were prepared following the same procedure. Spray solutions of the safeners and experimental compound mixtures were prepared by adding the stock solutions to the appropriate amount of dilution solution to form a 12 mL spray solution in two-way combinations. Formulated compounds were applied to the plant material with an overhead Mandel track sprayer equipped with 8002E nozzles calibrated to deliver 187 L/ha over an application area of 0.503 square meters (m^2) at a spray height of 18 inches (43 centimeters (cm)) above average plant canopy. Control plants were sprayed in the same manner with the solvent blank. All herbicide application (component a) rates are in g ae/ha and all safener (component b) rates are in g ai/ha.
The treated plants and control plants were placed in a greenhouse as described above and watered by sub-irrigation to prevent wash-off of the test compounds. After 20-22 d, the condition of the test plants as compared with that of the control plants was determined visually and scored on a scale of 0 to 100 percent where 0 corresponds to no injury and 100 corresponds to complete kill. Colby's equation was used to determine the herbicidal effects expected from the mixtures. […]

shepherd's purse (CAPBP) = test: Postemergence greenhouse trial, % visual injury on shepherd's purse; type: in vivo, Capsella bursa-pastoris
Russian thistle (SASKR) = test: Postemergence greenhouse trial, % visual injury on Russian thistle; type: in vivo, Salsola kali; details: SASKR
cleavers (GALAP) = test: Postemergence greenhouse trial, % visual injury on cleavers; type: in vivo, Galium aparine
Procedure: as §1, §2
(§3) The treated plants and control plants were placed in a greenhouse as described above and watered by sub-irrigation to prevent wash-off of the test compounds. After 20-22 d, the condition of the test plants as compared with that of the control plants was determined visually and scored on a scale of 0 to 100 percent where 0 corresponds to no injury and 100 corresponds to complete kill. The condition of the test plants was compared with that of the control plants as determined visually and scored on a scale of 0 to 100 percent, where 0 corresponds to no injury and 100 corresponds to complete kill. Colby's equation was used to determine the herbicidal effects expected from the mixtures.
(§4) The safener cloquintocet-mexyl was combined with compound 1, compound 2, compound 3, compound 7, compound 8, compound 9, compound 10, compound 11, compound 12, compound 13, compound 14, compound 15, compound 16, compound 17, compound 18, compound 19, and compound 20, and applied to spring wheat (TRZAS), winter wheat (TRZAW), and spring barley (HORVS) and the phytotoxicity of the herbicidal compositions was measured. […]

winter wheat (TRZAW) = test: Postemergence greenhouse trial, % visual injury on winter wheat; type: in vivo, Triticum aestivum; details: TRZAW, CQC-m 0 g/ha
Procedure: as §1, §2, §3, §4

cornflower (CENCY) = test: Postemergence greenhouse trial, % visual injury on cornflower; type: in vivo, Centaurea cyanus or Cyanus segetum; details: CENCY, CQC-m 0 g/ha
[1] = compound 4.375 g/ha, CQC-m 0 g/ha
[2] = compound 8.75 g/ha, CQC-m 0 g/ha
[3] = compound 17.5 g/ha, CQC-m 0 g/ha

CO/C=N/c1c(F)c(-c2ccc3cc[nH]c3c2F)nc(C(=O)OC)c1Cl [compound 10]
% visual injury, Ob (prickly lettuce (LACSE); compound 4.380 g/ha, CQC-m 0): 95% | % visual injury, Ob (prickly lettuce (LACSE); compound 8.75 g/ha, CQC-m 0): 100% | % visual injury, Ob (prickly lettuce (LACSE); compound 17.5 g/ha, CQC-m 0): 100% | % visual injury, Ob (prickly lettuce (LACSE); compound 35 g/ha, CQC-m 0): 100% | % visual injury, Ob (prickly lettuce (LACSE); compound 70 g/ha, CQC-m 0): 100% | % visual injury, Ob (shepherd's purse (CAPBP); compound 8.75 g/ha, CQC-m 0): 60% | % visual injury, Ob (shepherd's purse (CAPBP); compound 35 g/ha, CQC-m 0): 100% | % visual injury, Ob (Russian thistle (SASKR); compound 4.380 g/ha, CQC-m 0): 70% | % visual injury, Ob (Russian thistle (SASKR); compound 8.75 g/ha, CQC-m 0): 80% | % visual injury, Ob (Russian thistle (SASKR); compound 17.5 g/ha, CQC-m 0): 87% | % visual injury, Ob (Russian thistle (SASKR); compound 35 g/ha, CQC-m 0): 90% | % visual injury, Ob (Russian thistle (SASKR); compound 70 g/ha, CQC-m 0): 93%

Nc1c(F)c(-c2ccc3scnc3c2)nc(C(=O)O)c1Cl [compound 17]
% visual injury, Ob (cleavers (GALAP); 4.375 g/ha, applied alone): 50% | % visual injury, Ob (cleavers (GALAP); 8.75 g/ha, applied alone): 60% | % visual injury, Ob (cleavers (GALAP); 17.5 g/ha, applied alone): 70% | % visual injury, Ob (cleavers (GALAP); 35 g/ha, applied alone): 90% | % visual injury, Ob (cleavers (GALAP); 70 g/ha, applied alone): 90%

Nc1cc(-c2ccc3cc[nH]c3c2F)nc(C(=O)O)c1Cl [compound 15]
% visual injury, Ob (cleavers (GALAP); [1]): 85% | % visual injury, Ob (cleavers (GALAP); [2]): 85% | % visual injury, Ob (cleavers (GALAP); [3]): 93% | % visual injury, Ob (cleavers (GALAP); compound 35 g/ha, CQC-m 0 g/ha): 93% | % visual injury, Ob (cleavers (GALAP); compound 70 g/ha, CQC-m 0 g/ha): 90% | % visual injury, Ob (Russian thistle (SASKR); [1]): 10% | % visual injury, Ob (Russian thistle (SASKR); [2]): 10% | % visual injury, Ob (Russian thistle (SASKR); [3]): 10% | % visual injury, Ob (Russian thistle (SASKR); compound 35 g/ha, CQC-m 0 g/ha): 60% | % visual injury, Ob (Russian thistle (SASKR); compound 70 g/ha, CQC-m 0 g/ha): 70%

COC(=O)c1nc(-c2ccc3cc[nH]c3c2F)c(F)c(N)c1OC [compound 12]
% visual injury, Ob (shepherd's purse (CAPBP); compound 8.75 g/ha, CQC-m 0): 100% | % visual injury, Ob (shepherd's purse (CAPBP); compound 35 g/ha, CQC-m 0): 100% | % visual injury, Ob (Russian thistle (SASKR); compound 4.380 g/ha, CQC-m 0): 10% | % visual injury, Ob (Russian thistle (SASKR); compound 8.75 g/ha, CQC-m 0): 33% | % visual injury, Ob (Russian thistle (SASKR); compound 17.5 g/ha, CQC-m 0): 52% | % visual injury, Ob (Russian thistle (SASKR); compound 35 g/ha, CQC-m 0): 72% | % visual injury, Ob (Russian thistle (SASKR); compound 70 g/ha, CQC-m 0): 88%

COc1c(C(=O)O)nc(-c2ccc3cc[nH]c3c2F)c(F)c1N [compound 13]
% visual injury, Ob (prickly lettuce (LACSE); [1]): 85% | % visual injury, Ob (prickly lettuce (LACSE); [2]): 93% | % visual injury, Ob (prickly lettuce (LACSE); [3]): 95% | % visual injury, Ob (prickly lettuce (LACSE); compound 35 g/ha, CQC-m 0 g/ha): 95% | % visual injury, Ob (prickly lettuce (LACSE); compound 70 g/ha, CQC-m 0 g/ha): 100% | % visual injury, Ob (cleavers (GALAP); [1]): 40% | % visual injury, Ob (cleavers (GALAP); [2]): 70% | % visual injury, Ob (cleavers (GALAP); [3]): 80% | % visual injury, Ob (cleavers (GALAP); compound 35 g/ha, CQC-m 0 g/ha): 100% | % visual injury, Ob (cleavers (GALAP); compound 70 g/ha, CQC-m 0 g/ha): 100% | % visual injury, Ob (shepherd's purse (CAPBP); [1]): 85% | % visual injury, Ob (shepherd's purse (CAPBP); [2]): 100% | % visual injury, Ob (shepherd's purse (CAPBP); [3]): 100% | % visual injury, Ob (shepherd's purse (CAPBP); compound 35 g/ha, CQC-m 0 g/ha): 100% | % visual injury, Ob (shepherd's purse (CAPBP); compound 70 g/ha, CQC-m 0 g/ha): 100% | % visual injury, Ob (winter wheat (TRZAW); compound 35 g/ha): 70% | % visual injury, Ob (winter wheat (TRZAW); compound 70 g/ha): 80% | % visual injury, Ob (Russian thistle (SASKR); [1]): 50% | % visual injury, Ob (Russian thistle (SASKR); [2]): 65% | % visual injury, Ob (Russian thistle (SASKR); [3]): 77% | % visual injury, Ob (Russian thistle (SASKR); compound 35 g/ha, CQC-m 0 g/ha): 83% | % visual injury, Ob (Russian thistle (SASKR); compound 70 g/ha, CQC-m 0 g/ha): 91% | % visual injury, Ob (cornflower (CENCY); compound 4.375 g/ha): 100% | % visual injury, Ob (cornflower (CENCY); compound 8.75 g/ha): 100% | % visual injury, Ob (cornflower (CENCY); compound 17.5 g/ha): 100% | % visual injury, Ob (cornflower (CENCY); compound 35 g/ha): 100% | % visual injury, Ob (cornflower (CENCY); compound 70 g/ha): 100%

Nc1c(F)c(-c2ccc3ccoc3c2)nc(C(=O)O)c1Cl [compound 20]
% visual injury, Ob (Russian thistle (SASKR); 4.375 g/ha, applied alone): 20% | % visual injury, Ob (Russian thistle (SASKR); 8.75 g/ha, applied alone): 40% | % visual injury, Ob (Russian thistle (SASKR); 17.5 g/ha, applied alone): 60% | % visual injury, Ob (Russian thistle (SASKR); 35 g/ha, applied alone): 80% | % visual injury, Ob (Russian thistle (SASKR); 70 g/ha, applied alone): 80%

CCCCOC(=O)c1nc(-c2ccc3cc[nH]c3c2F)c(F)c(N)c1Cl [compound 9]
% visual injury, Ob (Russian thistle (SASKR); compound 4.380 g/ha, CQC-m 0): 65% | % visual injury, Ob (Russian thistle (SASKR); compound 8.75 g/ha, CQC-m 0): 70% | % visual injury, Ob (Russian thistle (SASKR); compound 17.5 g/ha, CQC-m 0): 80% | % visual injury, Ob (Russian thistle (SASKR); compound 35 g/ha, CQC-m 0): 85% | % visual injury, Ob (Russian thistle (SASKR); compound 70 g/ha, CQC-m 0): 87%
